How the values were obtained:
[1] = tested on: RASless MEF cells expressing BRAF V600E; assay: Proliferation of RASless MEF cells expressing BRAF V600E; type: cell-based; details: Mus musculus, normalized to DMSO control, 3 measurements, read-out: IC50 for inhibition of proliferation
Procedure: Cell numbers were averaged from 3 independent measurements and normalized with respect to DMSO control. Assays were conducted as described in McCarthy et al, (ACS Omega2019, 4, 2, 2921-2930).

[2] = target: T1, KRAS^G12D-Raf^RBD interaction (Homo sapiens, UniProt P01116, G12D); assay: Pull-down of GFP-KRAS G12D by GST-Raf RBD from cell lysates; type: binding
T1 construct: expressed in transfected cells; host or cells: BHK cells expressing GFP-RAS (lysate); GST-Raf RBD made in E. coli BL21 from a GEX plasmid
From the text: (§1) [formula] where P1 is polarization of free KRAS, P2 is polarization of Raf-bound KRAS, c is the total concentration of KRAS, and x the total concentration of Raf^RBD. (FIG. 2B) Amount of GFP-KRAS^G12D pulled down by GST-Raf^RBD after treatment of cell lysates with compound at the concentrations indicated (representative Westerns are shown at the top). The RBD sequence length was 1-149 and 51-131 in the fluorescence polarization and pull-down assays, respectively. (FIG. 2C) GFP fluorescence lifetime from FLIM-FRET using cells expressing GFP-KRAS^G12D alone or with RFP-Raf, with or without treatment by 1 μM compound 11. Data are shown as mean±S.E; significance estimated by one-way analysis of variance.
Pull-down. GFP-RAS with GST-tagged RAS binding domain (RBD) of cRaf^A85K (hereafter GST-Raf^RBD) pulled down to monitor RAS-Raf interaction. To prepare GST-Raf^RBD bound to agarose beads, bacteria (BL21) transfected with a previously cloned GEX plasmid were grown in selection media to OD levels of 0.5-1.0 before protein expression was initiated with IPTG (1:1000). After 4 h, the sample was centrifuged at 6000 rpm for 5 min at 4° C., the pellet was re-suspended with PBS containing 5 mM EGTA, 1% Triton X, PIC 1:50 and PMSF 1:100, and cells were lysed with cycles of freezing and thawing. The lysate was sonicated to breakup DNA, and pelleted. […]

KRAS-Raf^RBD interaction = KRAS-Raf^RBD interaction (Homo sapiens, UniProt P01116); assay: Fluorescence polarization of BGTP-γ-S KRAS with GST-Raf RBD; type: binding
Procedure: FIGS. 2A-2C show representative data pertaining to the disruption of KRAS-Raf interaction by disclosed compound 11. (FIG. 2A) Fluorescence polarization of ^BGTP-γ-SKRAS (0.5 μM) as a function of a varying concentration of GST-Raf^RBD in the absence (red) and presence (blue) of 1 μM compound 11. Shown above the curves is the KD for KRAS-Raf^RBD binding obtained by fitting the data to
as §1
Fluorescence polarization. Fluorescence polarization assay was conducted following previous reports (48, 49). KRAS was pre-loaded with the non-hydrolyzable fluorescent GTP analog BODIPY-GTP-γ-S (BGTP-γ-S; Life Technologies) using buffer-exchange in NAP-5 (GE Life Sciences) as described in the previous section. Then 0.5 μM (50 μL) of ^BGTP-γ-SKRAS was incubated with an equal volume but varying concentrations (0 to 2.5 μM) of GST-Raf^RBD (Raf RBD residues 1-149; Life Technologies) for 30 min in the dark. To determine the effect of ligand on RAS-Raf binding, KRAS was first incubated with a fixed concentration of the ligand for 30 min and then with GST-Raf^RBD. Fluorescence polarization was measured using PolarStar Optima plate reader (excitation: 485 nm, emission: 520 nm) at room temperature. GST-tag was used to increase the weight of Raf^RBD for a greater polarization. The dissociation constant for KRAS-Raf binding was determined using a quadratic ligand binding equation (48).

GDP-bound KRAS^G12D = GDP-bound KRAS^G12D (Homo sapiens, UniProt P01116, G12D); assay: MST binding, GDP-bound KRAS G12D; details: GDP state
From the text: FIGS. 1A-1D show representative data for the predicted binding mode and measured affinity of disclosed compound 11 to KRAS. (FIG. 1A) Structure of the catalytic domain of KRAS used for the virtual screening. Lobe1 (residues 1-86) and lobe2 (residues 87-166) are highlighted in different colors, as well as switches 1 (residues 30-40) and 2 (residues 60-75). The location of the target allosteric pocket p1 is indicated. (FIG. 1B) Chemical structure of compound 11. (FIG. 1C) Predicted binding pose of compound 11, with the key residues that make polar or vdW contacts with the ligand labeled. (FIG. 1D) Microscale thermophoresis (MST) experiments indicating direct binding of compound 11 to KRAS, along with dissociation constants (KD) derived from the curves. Changes in fluorescence upon titration of […] KRAS with increasing concentration of compound are shown: KRAS^WT (red), KRAS^G12C (green), KRAS^G12D (purple) and KRAS^Q61M (blue), each bound to the non-hydrolyzable GTP analogue, guanylyl imidodiphosphate (GNP). The same experiments indicated no binding to GDP-bound KRAS^G12D and KRAS^WT as well as Rap1B, which was used as control. […]

Row | Compound | IC50 [1] | decrease in GFP-KRAS^G12D levels pulled down ([2]; at 1 μM) | reduction of polarization (RAS-Raf interaction) (KRAS-Raf^RBD interaction; 1 μM compound, at 2 μM GST-Raf^RBD) | reduction of affinity of KRAS to Raf^RBD (KRAS-Raf^RBD interaction; 1 μM compound, from KD of polarization curves) | binding (in words) (GDP-bound KRAS^G12D) | effect on KRAS^G12D-Raf^RBD interaction (pull-down) ([2]; 10 μM) | effect on interaction of KRAS with GST-Raf^RBD (KRAS-Raf^RBD interaction; 20 μM compound)
1 | Cc1nn2c(N3CCN(CCO)CC3)cc(-c3ccccc3)nc2c1-c1ccccc1 [Compound 11, 2-[4-(8-methyl-3,9-diphenyl-2,6,7-triazabicyclo[4.3.0]nona-2,4,7,9-tetraen-5-yl)piperazin-1-yl]ethanol] | 1.68 ± 0.17 µM | > 50% | > 80% | ~13 fold | no binding |  | 
2 | Cc1cc(N2CCN(CCO)CC2)n2nc(C)c(-c3ccccc3)c2n1 [Compound 13] |  |  |  |  | does not bind | disrupts | as effectively as the parent compound
